Assay results taken from article PMC12040169 (PLOS Biology, 2025).

Experiment: in vitro
Conditions: human, hela cells, % viability

SMILES | viability at 28.5 h, 10 µM [%]
O=C(Cc1nnn[nH]1)N1CCC(Cn2cncn2)(C2CCCCC2)CC1 [CBK136796] | 92.2
CCCc1nn(CC(=O)NC2CCC2)c(=O)c2cc3ccsc3n12 [CBK284194] | 89.1
Cc1ncc2c(n1)[C@@H]1CN(C(=O)Cc3cccs3)C[C@@H]1CC2 [CBK284491] | 89.3
O=C(O)CC1C(=O)NCCN1C1Cc2ccccc2C1 (stereo not drawn) [CBK270089] | 88.2
COCCn1cnnc1CN(C)C(=O)NCc1cc2ccccc2s1 [CBK306911] | 98.6
O=C(Nc1ccc(Br)c2cccnc12)c1ccc(COc2ccccc2)cc1 [CBK266062] | 94.2
O=C(Nc1ccc(F)cc1)c1c(NS(=O)(=O)c2ccc(Oc3ccccc3)cc2)sc2c1CCCC2 [CBK028653] | 96.7
O=C(O)c1cc(C(=O)O)n(Cc2ccccc2Cl)n1 [CBK269381] | 88.1
OCCNc1nc(Nc2ccc(Cl)cc2)nc(N2CCCCC2)n1 [CBK266638] | 97.3
COc1cccc(C(=O)Nc2cnn(CCCC(=O)O)c2)c1 [CBK269879] | 89.6
CCn1cncc1CN1CC2CCCC(O)(c3ccc(F)cc3)C2C1 (stereo not drawn) [CBK282119] | 104
COC(=O)c1cccc(CCC2CC(=O)C=C(O)C2)c1 (stereo not drawn) [CBK012720] | 93.7
CCN(CC)C(=O)CN1CCN(c2nccnc2Oc2ccc(OC)c(OC)c2)CC1 [CBK083051T] | 103
Cc1nn(C2CCCO2)c(=O)nc1N (stereo not drawn) [CBK021028] | 101
Cc1oc(-c2ccccc2)cc1C(=O)Nc1c(F)cc(F)cc1OC1CCNCC1 [CBK050326T] | 89.8
COc1ccc(S(=O)(=O)Nc2cccc(C(=O)N3CCOCC3)c2)cc1OC [CBK039010] | 82.7
COC(=O)CNC(=O)c1nc(SC)ncc1Cl [CBK057651] | 107
COc1ccc(CN2CCCN(C(=O)c3ccc(F)cc3Br)CC2)cc1 [CBK251752] | 88.1
C=CCn1c(Cc2csc(NC(=O)c3ccc([N+](=O)[O-])cc3)n2)n[nH]c1=S [CBK295290] | 96.2
Clc1ccccc1-c1nccnc1NCCc1ccncc1 [CBK038055] | 98.1
Cc1cc(C(=O)O)ccc1-c1ccc(/C=C/c2[nH]c(=O)[nH]c(=O)c2[N+](=O)[O-])o1 [CBK266998] | 97.3
CCCCNC(=O)NC(=O)C1CCN(CCCOc2ccccc2)CC1 [CBK035198] | 110
Cn1nc(-c2ccc(S(=O)(=O)n3cc(C#N)c(N)n3)s2)cc1C(F)(F)F [CBK067237] | 91.2

SMILES | viability at 28.5 h, 10 µM [%]
Cc1cc(O)nc(C(C)N2CCCN(CC(F)(F)F)CC2)n1 (stereo not drawn) [CBK305491] | 88.6
CCN(CC)c1ccc(C(=O)CN2CCN(c3nccnc3OCCN3CCOCC3)CC2)cc1 [CBK082898T] | 97.4
Cc1nnc(SCC(=O)Nc2cc(C(F)(F)F)ccc2N2CCOCC2)o1 [CBK266815] | 109
COc1cccc(C2SCC(=O)Nc3[nH]nc(C)c32)c1 (stereo not drawn) [CBK287981] | 78.2
Cc1nc2cc(OCc3nc(C(=O)N(C)CCN(C)C)co3)ccc2s1 [CBK306685] | 106
Cc1ncsc1CCOc1nccnc1NC(C)C [CBK115728] | 106
O=C(Cn1c(=O)n(Cc2cccnc2)c(=O)c2ncccc21)NC1CCCC1 [CBK287666] | 103
COc1cncc(C(NC(=O)c2cc(=O)cc(C)o2)[C@H]2C[C@@H](O)C2)c1 (stereo partly drawn) [CBK306833] | 97.5
Cc1ccc(CN(Cc2cncn2C)C2CC(C)(C)NC(C)(C)C2)o1 [CBK283192] | 103
Cc1nnc(SCc2cc(=O)[nH]c(N3CCN(C)CC3)n2)s1 [CBK270106] | 91.7
COc1cc(/C=C(/C#N)C(N)=O)cc(Br)c1O [CBK017409] | 88.1
Cc1cc(C)n(C2CCN(Cc3c(C)nc4ccccn34)CC2)n1 [CBK281614] | 83.4
CN(C(=O)CN1CCN(c2cc(-c3cc4ccccc4o3)ncn2)CC1)c1ccccc1 [CBK091128] | 94
CC(C)S(=O)(=O)n1ccn(-c2ccc3c(c2)OCO3)c1=O [CBK106630] | 90.9
Cc1nc(C2CCCN(C(=O)c3cnn(C)c3)C2)c2sccn12 (stereo not drawn) [CBK285236] | 81.4
COc1ccc(-c2ccccc2CC2(C(=O)NCc3cccs3)CCOCC2)cc1 [CBK286429] | 92.3
CCn1c(C)nc2cc(NC(=O)c3cnn(C)c3)ccc21 [CBK281837] | 86.1
COc1ncnc(C)c1-c1cc(C)c(OC)c(C)c1 [CBK306852] | 100
COc1ccccc1N1CCN(C2CCN(Cc3ccc([N+](=O)[O-])cc3)CC2)CC1 [CBK264734G] | 98.8
O=C(O)CCc1nc2ccccc2s1 [CBK264071] | 115
CN(C)c1cccc(-c2cnc3[nH]c(=O)n(CCCO)c3n2)c1 [CBK065052] | 102
CCOc1ccc(NCc2ccccc2NS(=O)(=O)c2ccc(C)cc2)cc1 [CBK056876] | 93.6
C(=C\c1ccccc1)/CN1CCN(CCc2ccccc2)CC1 [CBK261893] | 93.4

SMILES | viability at 28.5 h, 10 µM [%]
O=C(NCc1ccco1)/C(=C\c1ccccc1)NC(=O)c1ccc(Br)cc1 [CBK263701] | 87.7
C#CCNC(=O)[C@@H]1Cc2cn(Cc3cc(C)on3)c3cccc(c23)[C@H](CC(C)C)N1 [CBK289426] | 90.4
O=C(/C=C/c1ccc2c(c1)OCO2)N1CCN(c2ncccn2)CC1 [CBK144501] | 89.5
O=C(O)c1cc2ccccc2[nH]1 [CBK015732] | 100
O=C1Nc2ccc(S(=O)(=O)NCC(O)c3ccc([N+](=O)[O-])cc3)c3cccc1c23 (stereo not drawn) [CBK266745] | 88.1
O=C1CN(C(=O)NCC2COc3ccccc3O2)CCN1 (stereo not drawn) [CBK155847] | 88.3
CCN1CCN(Cc2ccc(OC)c(OCc3ccccc3)c2)CC1 [CBK261910] | 89.4
O=C(NC1(CN2CCCCC2)CCCCC1)NS(=O)(=O)c1ccc(Cl)cc1 [CBK022858] | 94.4
Clc1ccc2nc(SCc3csc(Nc4ccccc4)n3)oc2c1 [CBK268269] | 100
Cc1cc(C)nc(NC(=O)c2cccc(Cl)c2)n1 [CBK288165] | 90
COc1cc(Nc2cc(C)nc3ncnn23)ccc1N1CCCC1=O [CBK297725] | 102
CC(C)c1nc(NCCc2nnc3n2CCCC3)nc(N(C)C)n1 [CBK306426] | 112
Cc1ccc(-c2ccccc2CC2(C(=O)O)CCN(Cc3ccccc3F)CC2)c(C)c1 [CBK286418] | 96.7
Nc1ncnc(Nc2cc(C(F)(F)F)cc(C(F)(F)F)c2)n1 [CBK006617] | 86.8
CCc1c(O)c2ccccc2n(Cc2ccccc2)c1=O [CBK219367] | 90
CN(C)c1ccc(C(=O)Nc2nnc(C3=COCCO3)o2)cc1 [CBK287415] | 98.8
Cn1nc(NC(=O)COCC(=O)O)c2ccccc21 [CBK057114] | 98.8
CC(=O)Nc1ccc(-c2ccc(C(=O)NCc3ccc(OC(F)(F)F)cc3)cn2)cc1 [CBK158830] | 98.6
Cc1nc2c(c(=O)[nH]1)CCN(CCC(C)c1ccccc1)C2 (stereo not drawn) [CBK282387] | 81
NC1CCN(C(=O)Cn2c3ccccc3c(=O)c3ccccc32)C1 (stereo not drawn) [CBK304300C] | 94.3
CC(C)c1csc(NC(=O)CC2CCN(C(=O)CC3CCCCC3)CC2)n1 [CBK285963] | 82.3
NS(=O)(=O)c1ccc(NC(=O)CCSc2ccc(Cl)cc2)cc1 [CBK269322] | 94.4
COC(=O)CCc1ccc(S(=O)(=O)N2CCCN(Cc3cccc(Cl)c3Cl)CC2)cc1 [CBK062988] | 93.5

SMILES | viability at 28.5 h, 10 µM [%]
COc1cc(/C=C/C(=O)O)cc(S(=O)(=O)N2CCOCC2)c1OC [CBK264078] | 117
Cc1ccc(CNC(=O)COc2ccc(S(=O)(=O)N3CCOCC3)cc2)cc1 [CBK269816] | 87.8
CCc1nn(Cc2ccccn2)c(=O)c2cc3sc(C)cc3n12 [CBK284113] | 77
CC(=O)CSc1nsc(SCC(C)=O)n1 [CBK006702] | 89.6
O=C(C1=C(O)C(=O)N(CCCn2ccnc2)C1c1cccc([N+](=O)[O-])c1)c1ccc(F)cc1 (stereo not drawn) [CBK264571] | 97.8
CC(C)CNc1nc(-c2cccc(O)c2)cnc1N [CBK063862] | 99.1
CCn1c(C)nc2cc(NC(=O)Cn3cccc(C(=O)NC4CCCCC4)c3=O)ccc21 [CBK286042] | 92.9
Cn1ccnc1CN1CCC2(CC1)CC(C(=O)O)N(C(=O)C1CC1)C2 (stereo not drawn) [CBK306986] | 88.2
CC(C)Cn1cnc2c(c1=N)C(c1ccccc1)c1ccc(O)cc1O2 (stereo not drawn) [CBK287864] | 101
Nc1nc(-c2ccc3c(c2)CCC(=O)N3)cs1 [CBK086133] | 80.8
O=[N+]([O-])c1ccc(N2CCN(C/C=C/c3ccccc3[N+](=O)[O-])CC2)cc1 [CBK261895] | 95
O=c1[nH]ccn2nc(-c3ccc4c(c3)OCO4)cc12 [CBK288048] | 87.7
OCCN1CCN(C(c2ccccc2)c2sc3ncnn3c2O)CC1 (stereo not drawn) [CBK287611] | 82.5
c1ccc(OCc2nn3c(Cn4nnc5ccccc54)nnc3s2)cc1 [CBK268330] | 95.9
Cc1cc2ccccc2n2c(=O)n(CC(=O)N3CCCCCC3)nc12 [CBK283883] | 82.3
CN1CCC(Oc2nc3cc(Cl)c(Cl)cc3nc2N2CCCC2)CC1 [CBK115290] | 82.2
CN(C)c1nc(N(C)C)n(Cc2ccc(F)cc2)n1 [CBK018839] | 89.3
CCCC/C=C/c1cnc2[nH]c(=O)n(CCCOC)c2n1 [CBK064540] | 109
O=C(NCCCn1ccnc1)c1cnn2c(C(F)(F)F)cc(-c3cccs3)nc12 [CBK263060] | 88.7
O=C(O)C(CC1COc2ccccc2O1)C(=O)O (stereo not drawn) [CBK276280] | 89.6

Same assay, conditions: human, hela cells, % viability, bulk resorufin, single well

SMILES | viability at 28.5 h, 10 µM [%]
O=C(O)CCCNC(=O)C(O)(c1ccccc1)c1ccccc1 [CBK269156] | 95.5
